Measured values reported in article PMC8824665, “Rapid Assessment of Insect Steroid Hormone Entry Into Cultured Cells” (Frontiers in Physiology, 2022).
Where two headings read alike, the source gives them in different places.

Target: T1, EcR-RXR (EcR-LgBiT / RXR-SmBiT) (Drosophila melanogaster, UniProt P34021)
T1 construct: full-length EcR with C-terminal LgBiT (pFC34K-EcR) and RXR with C-terminal SmBiT (pFC36K-RXR), expressed in HEK293T cells; heterodimer; probably human RXR-alpha
T1 sequence (P34021 1-878): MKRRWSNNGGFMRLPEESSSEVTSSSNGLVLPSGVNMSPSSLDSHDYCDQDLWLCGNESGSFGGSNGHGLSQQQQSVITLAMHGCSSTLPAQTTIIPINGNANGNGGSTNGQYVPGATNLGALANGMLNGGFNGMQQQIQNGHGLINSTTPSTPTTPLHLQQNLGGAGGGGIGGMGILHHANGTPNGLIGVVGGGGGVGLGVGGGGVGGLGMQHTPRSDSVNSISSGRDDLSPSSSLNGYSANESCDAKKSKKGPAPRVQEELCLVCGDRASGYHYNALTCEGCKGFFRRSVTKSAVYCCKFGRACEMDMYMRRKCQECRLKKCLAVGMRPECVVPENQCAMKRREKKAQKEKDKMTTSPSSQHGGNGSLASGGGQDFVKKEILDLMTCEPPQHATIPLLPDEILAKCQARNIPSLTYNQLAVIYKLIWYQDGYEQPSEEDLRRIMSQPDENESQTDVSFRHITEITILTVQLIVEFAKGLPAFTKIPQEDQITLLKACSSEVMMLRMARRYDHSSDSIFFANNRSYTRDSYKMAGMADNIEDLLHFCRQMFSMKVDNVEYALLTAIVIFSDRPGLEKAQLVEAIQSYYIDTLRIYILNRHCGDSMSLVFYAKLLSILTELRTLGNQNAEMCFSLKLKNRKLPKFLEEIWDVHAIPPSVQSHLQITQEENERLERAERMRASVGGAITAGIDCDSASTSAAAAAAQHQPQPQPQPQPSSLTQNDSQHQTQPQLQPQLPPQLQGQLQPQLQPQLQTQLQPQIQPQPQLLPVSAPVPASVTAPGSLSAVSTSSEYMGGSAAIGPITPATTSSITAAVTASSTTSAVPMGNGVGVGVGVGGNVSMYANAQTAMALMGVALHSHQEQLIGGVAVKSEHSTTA
T1 sequence (P19793 1-462 partner): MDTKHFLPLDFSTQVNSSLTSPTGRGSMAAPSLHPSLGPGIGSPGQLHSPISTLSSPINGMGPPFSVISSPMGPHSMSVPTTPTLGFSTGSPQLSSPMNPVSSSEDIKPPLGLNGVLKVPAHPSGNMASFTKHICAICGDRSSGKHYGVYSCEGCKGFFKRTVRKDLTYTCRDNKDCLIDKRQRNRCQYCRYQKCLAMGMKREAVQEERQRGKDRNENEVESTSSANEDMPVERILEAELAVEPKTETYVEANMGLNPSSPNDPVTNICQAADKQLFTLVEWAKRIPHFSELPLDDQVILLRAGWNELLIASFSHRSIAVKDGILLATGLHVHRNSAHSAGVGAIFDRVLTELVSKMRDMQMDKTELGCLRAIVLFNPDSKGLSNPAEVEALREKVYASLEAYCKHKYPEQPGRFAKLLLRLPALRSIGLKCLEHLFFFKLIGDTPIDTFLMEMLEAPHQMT
Assay: NanoBiT split-luciferase assay of ligand-induced EcR-RXR heterodimerization in live HEK293T cells
Type: cell-based

Row | SMILES | EC50 (read-out: EC50) | EC50
1 | CC(C)(O)CC[C@@H](O)[C@](C)(O)[C@H]1CC[C@@]2(O)C3=CC(=O)[C@@H]4C[C@@H](O)[C@@H](O)C[C@]4(C)[C@H]3CC[C@]12C [20E, 20-hydroxyecdysone] | 2.2 µM | 
2 | Cc1cc(C)cc(C(=O)N(NC(=O)c2ccc3c(c2C)CCCO3)C(C)(C)C)c1 [CF, chromafenozide] |  | 4.76 µM
